# From ChEMBL document CHEMBL5543140 (J Med Chem, 2024)
# Calls of active or inactive are those of the source. The rule behind the calls is not given here.
# Tests used:
# Homo sapiens = species on record: Homo sapiens; test: Selectivity ratio, ratio of Ki for human 5-HT2B receptor to human 5-HT2C receptor
# [1] = biological target: T1, 5-hydroxytryptamine receptor 1B (Homo sapiens, UniProt P28222); test: Displacement of [3H]GR125743 from 5-HT1B receptor (unknown origin) assessed as inhibition binding at 10 uM relative to control
# [2] = biological target: T1, 5-hydroxytryptamine receptor 1B; test: Displacement of [3H]5-CT from 5-HT1B receptor (unknown origin) assessed as inhibition binding
# [3] = biological target: 5-hydroxytryptamine receptor 5A (Homo sapiens) (UniProt P47898); test: Binding affinity to human 5-HT5A receptor (unknown origin) at 10 uM by radioligand displacement assay
# [4] = biological target: T2, 5-hydroxytryptamine receptor 1A (Homo sapiens) (UniProt P08908); test: Agonist activity at human 5-HT1A receptor expressed in HEK293T cells co-transfected with 22F-Glosensor assessed as maximal inhibition of cAMP production measured after 30 mins incubation by Microbeta2Micro-plate counter analysis relative to control; assay type: functional, cell-based; conditions: filed as agonist
# T2 sequence (whole entry): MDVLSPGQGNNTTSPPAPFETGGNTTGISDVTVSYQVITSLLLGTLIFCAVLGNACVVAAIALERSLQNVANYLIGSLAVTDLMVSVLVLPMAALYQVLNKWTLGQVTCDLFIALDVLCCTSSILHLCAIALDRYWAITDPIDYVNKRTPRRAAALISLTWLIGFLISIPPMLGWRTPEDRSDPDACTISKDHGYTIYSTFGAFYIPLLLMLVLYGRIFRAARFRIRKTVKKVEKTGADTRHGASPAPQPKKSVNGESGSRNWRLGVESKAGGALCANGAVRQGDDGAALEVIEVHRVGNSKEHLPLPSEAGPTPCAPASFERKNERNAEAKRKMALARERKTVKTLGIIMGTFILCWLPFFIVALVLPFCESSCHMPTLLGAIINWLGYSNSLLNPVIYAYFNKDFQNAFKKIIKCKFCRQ
# [5] = biological target: Muscarinic acetylcholine receptor M5 (Homo sapiens) (UniProt P08912); test: Displacement of [3H]4-DAMP from human recombinant muscarinic M5 receptor expressed in HEK293 cells at 10 uM incubated for 60 mins by radiometric based scintillation counter assay relative to control; assay type: cell-based
# [6] = biological target: Voltage-dependent L-type calcium channel subunit alpha-1C (Homo sapiens, UniProt Q13936); test: Binding affinity to human Calcium channel L-type (verapamil site) at 10 uM measured after 180 mins by [3H]D888-Radiometric assay relative to control
# [7] = biological target: Alpha-2A adrenergic receptor (Homo sapiens, UniProt P08913); test: Agonist activity at human recombinant adrenergic alpha-2A receptor expressed in CHO-K1 cells co-transfected with 22F-Glosensor assessed as inhibition of cAMP production measured after 30 mins incubation by Microbeta2Micro-plate counter analysis; assay type: functional, cell-based
# Mus musculus [8] = test: Psychedelic effect in C57BL/6J mouse assessed as induction of 5-HT2A receptor dependent maximal head-twitch responses by visual observation at 1 mg/kg, sc at 100 mins; assay type: functional, organism-based
# Mus musculus [9] = test: Psychedelic effect in C57BL/6J mouse assessed as induction of 5-HT2A receptor dependent maximal head-twitch responses by visual observation at 1 mg/kg, sc measured after 24 hrs; assay type: functional, organism-based
# Mus musculus [10] = test: Locomotor activity in C57BL/6J mouse assessed as distance traveled at 10 mg/kg, po measured for 15 to 25 mins (reference value: 1710 +/- 120 cm) by Ethovision tracking system; assay type: functional; conditions: time 15-25 min
# [11] = Ex vivo binding in C57BL/6J mouse brain frontal cortex assessed as inhibition of [3H]Cimbi-36 binding at 1 mg/kg, sc measured after 5 mins by liquid scintillation counting analysis (reference value: 0%); assay type: functional
# [12] = Ex vivo binding in C57BL/6J mouse brain frontal cortex assessed as inhibition of [3H]Cimbi-36 binding at 1 mg/kg, sc measured after 40 mins by liquid scintillation counting analysis (reference value: 0%); assay type: functional
# [13] = Ex vivo binding in C57BL/6J mouse brain frontal cortex assessed as inhibition of [3H]Cimbi-36 binding at 1 mg/kg, sc measured after 100 mins by liquid scintillation counting analysis (reference value: 0%); assay type: functional; conditions: 1.667 h
# Hippocampus [14] = test: Induction of neuroplasticity in C57BL/6J mouse assessed as increase in PSD-95 mRNA expression in brain hippocampus at 3 mg/kg, sc single dose by RT-PCR analysis; assay type: functional, organism-based
# Hippocampus [15] = test: Induction of neuroplasticity in C57BL/6J mouse assessed as increase in SYN1 mRNA expression in brain hippocampus at 3 mg/kg, sc single dose by RT-PCR analysis; assay type: functional, organism-based
# Hippocampus [16] = test: Induction of neuroplasticity in C57BL/6J mouse assessed as increase in IGF1 mRNA expression in brain hippocampus at 3 mg/kg, sc single dose by RT-PCR analysis; assay type: functional, organism-based
# Hippocampus [17] = test: Induction of neuroplasticity in C57BL/6J mouse assessed as increase in PSD-95 mRNA expression in brain hippocampus at 0.3 mg/kg, sc single dose by RT-PCR analysis; assay type: functional, organism-based
# Hippocampus [18] = test: Induction of neuroplasticity in C57BL/6J mouse assessed as increase in SYN1 mRNA expression in brain hippocampus at 0.3 mg/kg, sc single dose by RT-PCR analysis; assay type: functional, organism-based
# Hippocampus [19] = test: Induction of neuroplasticity in C57BL/6J mouse assessed as increase in […] mRNA expression in brain hippocampus at 0.3 mg/kg, sc single dose by RT-PCR analysis; assay type: functional, organism-based
# [20] = Metabolic stability in mouse liver microsomes assessed as half life at 1 uM incubated for 120 mins in presence of NADPH; assay type: ADME, Microsome
# [21] = Metabolic stability in human liver S9 fractions assessed as half life; assay type: ADME, subcellular; conditions: liver S9 fraction
# [22] = Volume of distribution in Wistar rat plasma at 1 mg/kg, iv measured upto 48 hrs; assay type: ADME, organism-based
# [23] = Tmax in Wistar rat plasma at 5 mg/kg, po measured upto 48 hrs; assay type: ADME, organism-based
# [24] = AUCinf in Wistar rat plasma at 5 mg/kg, po measured upto 48 hrs; assay type: ADME, organism-based
# [25] = MRTlast in Wistar rat plasma at 5 mg/kg, po measured upto 48 hrs; assay type: ADME, organism-based
# [26] = AUCinf in Wistar rat brain at 1 mg/kg, iv measured upto 48 hrs; assay type: ADME, organism-based
# [27] = MRTinf in male Sprague-Dawley rat plasma at 1 mg/kg, iv measured upto 8 hrs by LC-MS/MS analysis; assay type: ADME, organism-based
# [28] = AUCinf in male Sprague-Dawley rat brain at 1 mg/kg, iv measured upto 8 hrs by LC-MS/MS analysis; assay type: ADME, organism-based
# [29] = Unbound concentration in male Sprague-Dawley rat brain homogenate at 1 mg/kg, iv measured upto 8 hrs by LC-MS/MS analysis; assay type: ADME, organism-based
# [30] = AUClast in beagle dog at 0.4 mg/kg, iv measured upto 24 hrs; assay type: ADME, organism-based, Canis lupus familiaris; conditions: in vivo
# [31] = Cmax in beagle dog at 2 mg/kg, po measured upto 24 hrs; assay type: ADME, organism-based, Canis lupus familiaris; conditions: in vivo
# [32] = Half life in beagle dog at 2 mg/kg, po measured upto 24 hrs; assay type: ADME, organism-based, Canis lupus familiaris; conditions: in vivo
# T1 sequence (P28222 whole entry): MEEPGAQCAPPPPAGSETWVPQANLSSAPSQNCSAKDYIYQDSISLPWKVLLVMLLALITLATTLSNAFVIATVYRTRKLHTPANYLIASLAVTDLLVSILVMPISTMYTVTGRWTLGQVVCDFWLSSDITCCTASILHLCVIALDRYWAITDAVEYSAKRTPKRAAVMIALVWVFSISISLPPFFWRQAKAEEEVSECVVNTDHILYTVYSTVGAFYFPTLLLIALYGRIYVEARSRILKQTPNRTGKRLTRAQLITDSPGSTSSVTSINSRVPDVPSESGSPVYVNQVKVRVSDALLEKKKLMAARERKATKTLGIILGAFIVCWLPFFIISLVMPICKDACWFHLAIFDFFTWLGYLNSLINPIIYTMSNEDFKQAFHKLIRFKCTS
# Alpha-2A adrenergic receptor, sequence (P08913 whole entry): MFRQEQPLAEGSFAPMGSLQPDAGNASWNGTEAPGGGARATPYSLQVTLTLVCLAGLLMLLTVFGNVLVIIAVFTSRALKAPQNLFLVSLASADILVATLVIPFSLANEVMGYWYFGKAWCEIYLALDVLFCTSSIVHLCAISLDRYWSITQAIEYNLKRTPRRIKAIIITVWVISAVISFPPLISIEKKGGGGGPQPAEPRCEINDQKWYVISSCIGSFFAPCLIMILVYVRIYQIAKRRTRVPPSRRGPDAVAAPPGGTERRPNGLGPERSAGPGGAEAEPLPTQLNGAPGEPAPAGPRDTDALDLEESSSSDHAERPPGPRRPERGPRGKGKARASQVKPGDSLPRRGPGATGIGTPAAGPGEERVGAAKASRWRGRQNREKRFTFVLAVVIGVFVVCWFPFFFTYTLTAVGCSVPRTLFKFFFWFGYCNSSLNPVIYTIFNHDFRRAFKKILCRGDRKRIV
# 5-hydroxytryptamine receptor 5A (Homo sapiens), sequence (P47898 whole entry): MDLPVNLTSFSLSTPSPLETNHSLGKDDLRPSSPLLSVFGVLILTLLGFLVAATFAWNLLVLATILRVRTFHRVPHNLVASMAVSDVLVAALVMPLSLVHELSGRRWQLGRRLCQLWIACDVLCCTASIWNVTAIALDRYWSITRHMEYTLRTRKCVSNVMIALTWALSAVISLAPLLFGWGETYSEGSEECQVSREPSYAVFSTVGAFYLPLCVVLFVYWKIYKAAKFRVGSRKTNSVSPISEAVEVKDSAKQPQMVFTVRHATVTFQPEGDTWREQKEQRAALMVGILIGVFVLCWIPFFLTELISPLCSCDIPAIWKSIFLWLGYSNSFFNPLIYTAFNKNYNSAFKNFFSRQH
# Muscarinic acetylcholine receptor M5 (Homo sapiens), sequence (P08912 whole entry): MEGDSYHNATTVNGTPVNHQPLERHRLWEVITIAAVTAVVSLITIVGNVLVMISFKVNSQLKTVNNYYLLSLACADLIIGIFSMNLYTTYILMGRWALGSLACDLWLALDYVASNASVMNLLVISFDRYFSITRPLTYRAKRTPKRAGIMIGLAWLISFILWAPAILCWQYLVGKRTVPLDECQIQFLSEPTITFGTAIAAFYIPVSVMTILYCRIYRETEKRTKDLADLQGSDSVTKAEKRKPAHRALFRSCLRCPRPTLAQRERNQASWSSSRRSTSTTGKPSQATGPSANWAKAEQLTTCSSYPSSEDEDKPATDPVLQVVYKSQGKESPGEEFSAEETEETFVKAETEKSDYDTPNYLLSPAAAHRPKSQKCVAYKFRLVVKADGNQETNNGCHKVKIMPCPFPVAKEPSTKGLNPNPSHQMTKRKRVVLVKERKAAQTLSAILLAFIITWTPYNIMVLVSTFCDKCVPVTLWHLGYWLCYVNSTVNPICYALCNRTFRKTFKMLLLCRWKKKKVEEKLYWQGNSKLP
# Voltage-dependent L-type calcium channel subunit alpha-1C, sequence (Q13936 whole entry): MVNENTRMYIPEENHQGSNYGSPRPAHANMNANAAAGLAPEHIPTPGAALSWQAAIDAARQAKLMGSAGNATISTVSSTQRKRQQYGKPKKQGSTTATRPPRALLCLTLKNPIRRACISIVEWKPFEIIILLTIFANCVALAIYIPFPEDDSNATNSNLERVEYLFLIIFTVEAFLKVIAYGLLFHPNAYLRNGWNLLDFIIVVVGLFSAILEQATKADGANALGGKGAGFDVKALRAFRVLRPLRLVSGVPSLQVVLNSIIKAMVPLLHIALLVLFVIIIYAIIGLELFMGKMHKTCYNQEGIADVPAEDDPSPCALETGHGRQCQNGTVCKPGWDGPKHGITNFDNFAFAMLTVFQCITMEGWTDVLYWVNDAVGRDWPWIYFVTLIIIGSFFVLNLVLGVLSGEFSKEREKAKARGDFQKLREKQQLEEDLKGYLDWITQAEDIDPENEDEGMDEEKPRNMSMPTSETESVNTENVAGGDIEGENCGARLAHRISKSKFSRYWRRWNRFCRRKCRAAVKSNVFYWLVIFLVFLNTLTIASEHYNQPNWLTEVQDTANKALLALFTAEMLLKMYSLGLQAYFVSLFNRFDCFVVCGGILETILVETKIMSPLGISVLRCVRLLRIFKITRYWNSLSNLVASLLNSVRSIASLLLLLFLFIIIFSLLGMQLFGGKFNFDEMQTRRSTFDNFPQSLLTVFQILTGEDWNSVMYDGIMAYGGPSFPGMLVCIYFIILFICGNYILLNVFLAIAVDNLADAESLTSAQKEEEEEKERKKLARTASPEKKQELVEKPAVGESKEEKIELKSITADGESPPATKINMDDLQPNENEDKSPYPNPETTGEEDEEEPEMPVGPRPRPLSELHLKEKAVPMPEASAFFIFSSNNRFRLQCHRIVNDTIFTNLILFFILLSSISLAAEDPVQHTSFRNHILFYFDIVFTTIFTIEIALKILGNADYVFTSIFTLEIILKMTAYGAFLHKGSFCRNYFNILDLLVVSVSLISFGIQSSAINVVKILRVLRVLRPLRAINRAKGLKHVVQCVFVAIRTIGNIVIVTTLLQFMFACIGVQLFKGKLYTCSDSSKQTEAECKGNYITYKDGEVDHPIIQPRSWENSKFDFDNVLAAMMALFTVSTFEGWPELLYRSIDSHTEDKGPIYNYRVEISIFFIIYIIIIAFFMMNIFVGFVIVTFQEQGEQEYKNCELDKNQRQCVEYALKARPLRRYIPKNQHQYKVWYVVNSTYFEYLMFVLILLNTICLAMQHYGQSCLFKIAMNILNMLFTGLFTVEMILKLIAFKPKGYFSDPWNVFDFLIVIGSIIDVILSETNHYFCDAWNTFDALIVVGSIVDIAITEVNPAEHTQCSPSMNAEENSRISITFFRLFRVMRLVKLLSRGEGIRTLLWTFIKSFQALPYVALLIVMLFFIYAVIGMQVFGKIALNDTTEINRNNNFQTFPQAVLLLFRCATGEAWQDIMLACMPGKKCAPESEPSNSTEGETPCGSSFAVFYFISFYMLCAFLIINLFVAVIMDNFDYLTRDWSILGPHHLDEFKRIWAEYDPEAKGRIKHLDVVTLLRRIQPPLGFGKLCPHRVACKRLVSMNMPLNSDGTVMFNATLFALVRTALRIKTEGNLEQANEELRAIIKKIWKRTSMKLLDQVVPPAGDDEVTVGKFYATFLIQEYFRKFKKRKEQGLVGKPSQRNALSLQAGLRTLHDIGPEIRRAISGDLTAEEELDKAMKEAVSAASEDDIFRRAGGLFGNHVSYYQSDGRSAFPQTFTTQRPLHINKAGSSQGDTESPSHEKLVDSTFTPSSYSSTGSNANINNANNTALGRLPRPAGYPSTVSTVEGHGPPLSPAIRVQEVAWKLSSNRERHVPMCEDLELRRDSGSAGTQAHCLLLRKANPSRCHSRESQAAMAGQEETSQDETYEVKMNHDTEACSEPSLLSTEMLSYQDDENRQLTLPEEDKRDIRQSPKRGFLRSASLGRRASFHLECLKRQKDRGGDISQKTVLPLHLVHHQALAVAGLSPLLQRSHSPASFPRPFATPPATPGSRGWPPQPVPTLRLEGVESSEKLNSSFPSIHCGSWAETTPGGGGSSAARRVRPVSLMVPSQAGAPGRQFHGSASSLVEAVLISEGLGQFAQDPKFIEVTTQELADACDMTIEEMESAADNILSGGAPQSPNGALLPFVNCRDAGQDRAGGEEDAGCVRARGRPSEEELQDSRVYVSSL
structure (smiles),measurement,setting,value
COc1cc([Se]C(F)(F)F)c(OC)cc1CCN.Cl,Ratio Ki,Homo sapiens,12
same,inhibition,[1],83%
same,Ki,[2],949 nM
same,Activity,[3],inactive
same,Emax,[4],92%
same,inhibition,[5],83%
same,Activity,[6],85%
same,EC50,[7],126 nM
same,Activity,Mus musculus [8],Active
same,Activity,Mus musculus [9],inactive
same,Activity,Mus musculus [10],1974 cm
same,inhibition in vivo at 1 mg/kg,[11],13%
same,inhibition in vivo at 1 mg/kg,[12],33%
same,inhibition in vivo at 1 mg/kg,[13],25%
same,Activity,Hippocampus [14],inactive
same,Activity,Hippocampus [15],inactive
same,Activity,Hippocampus [16],inactive
same,Activity,Hippocampus [17],inactive
same,Activity,Hippocampus [18],inactive
same,Activity,Hippocampus [19],inactive
same,half-life at 1 µM,[20],> 2 h
same,half-life,[21],> 2 h
same,Vd,[22],22.2 L/kg
same,Tmax,[23],0.5 h
same,AUC(0-inf),[24],49.7 ng·h/mL
same,MRT last at 48 h,[25],2.25 h
same,AUC(0-inf),[26],3260 ng·h/mL
same,MRT inf,[27],1.19 h
same,AUC(0-inf),[28],3280 ng·h/mL
same,fraction unbound at 8 h,[29],0.014
same,AUC(0-t) at 24 h,[30],366 ng·h/mL
same,Cmax,[31],263 ng/mL
same,half-life,[32],6.78 h
